# Data published in patent publication US8367658B2, “Pyrazin-2-yl-pyridin-2-yl-amine and pyrazin-2-yl-pyrimidin-4-yl-amine compounds and their use” (Cancer Research Technology Limited, priority 2007, dated 2013).
# Several values for one entry are separate records, joined by “and”; a condition that tells them apart may be missing. Identical values can stand only once.
# Target: T1, CHK1 (Homo sapiens, UniProt O14757)
# T1 sequence (O14757 1-476): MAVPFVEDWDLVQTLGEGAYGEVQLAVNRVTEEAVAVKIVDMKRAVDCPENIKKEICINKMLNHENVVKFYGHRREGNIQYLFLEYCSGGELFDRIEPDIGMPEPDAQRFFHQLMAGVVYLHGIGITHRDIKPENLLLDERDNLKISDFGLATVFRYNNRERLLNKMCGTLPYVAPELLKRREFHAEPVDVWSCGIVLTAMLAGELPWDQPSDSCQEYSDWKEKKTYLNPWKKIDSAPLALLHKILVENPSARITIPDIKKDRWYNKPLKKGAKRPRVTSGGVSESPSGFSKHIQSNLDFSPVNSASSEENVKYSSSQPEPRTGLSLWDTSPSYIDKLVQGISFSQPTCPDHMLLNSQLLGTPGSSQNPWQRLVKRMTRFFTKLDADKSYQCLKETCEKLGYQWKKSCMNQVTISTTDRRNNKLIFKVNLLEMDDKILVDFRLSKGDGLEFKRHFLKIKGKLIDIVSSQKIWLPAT
# Test: CHK1 kinase function inhibition assay (DELFIA, phosphorylation of a CDC25C peptide)
# Type: biochemical
# Settings: CHK1 1 nM, ATP 30 μM, 30 minutes at room temperature
# Description: Measurement of Inhibition of CHK1 Kinase Function
# CHK1 kinase function was measured in a DELFIA® assay in order to monitor phosphorylation of a CDC25C peptide using a specific phospho antibody.
# The reaction mixture was incubated for 30 minutes at room temperature and then stopped by the addition of buffer (125 μL) containing 40 mM EDTA, 0.05% Tween 20, 0.1% BSA in TBS (10× concentrate, Sigma). An aliquot (100 μL) of the stopped reaction mixture was transferred to a black neutravidin-coated plate (Perbio) and incubated for 1 hour on a shaker (Titertek, Flow Laboratories) at room temperature. […] The plates were washed a further four times with wash buffer before the addition of enhancement solution (100 μL/well, PerkinElmer Life Sciences).
row,IC50,SMILES
1,≤ 100 nM,"N#Cc1cnc(Nc2cc(NCC3CCCNC3)c(N3CCC(O)C3)cn2)cn1 (stereo in doubt) [Compound Y-061, 5-(5-(3-Hydroxypyrrolidin-1-yl)-4-((R)-piperidin-3-ylmethylamino)pyridin-2-ylamino) pyrazine-2-carbonitrile]"
2,≤ 1000 nM and 100 to 1000 nM,"COC(=O)c1cnc(Nc2cnc(C#N)cn2)cc1N[C@H]1CCN[C@H](C(=O)Nc2ccccc2)C1 [Compound Y-028, Methyl 6-(5-cyanopyrazin-2-ylamino)-4-((2S,4S)-2-(phenylcarbamoyl)piperidin-4-ylamino)nicotinate]"
3,≤ 1000 nM and 100 to 1000 nM,"COC(=O)c1cnc(Nc2cnc(C#N)cn2)cc1NCC1(C)COC1 [Compound Y-031, Methyl 6-(5-cyanopyrazin-2-ylamino)-4-((3-methyloxetan-3-yl)methylamino)nicotinate]"
4,≤ 1000 nM and 100 to 1000 nM,"COC(=O)c1cnc(Nc2cnc(C)cn2)cc1NCC1CCNCC1 [Compound Y-036, Methyl 6-(5-methylpyrazin-2-ylamino)-4-(piperidin-4-ylmethylamino)nicotinate]"
5,1000 to 10000 nM,"N#Cc1cnc(Nc2cc(OCC3CCNCC3)c(N)cn2)cn1 [Compound Y-038, 5-(5-Amino-4-(piperidin-4-ylmethoxy)pyridin-2-ylamino)pyrazine-2-carbonitrile]"
6,1000 to 10000 nM,"CN(C)CC(=O)Nc1cnc(Nc2cnc(C#N)cn2)cc1OCC1CCNCC1 [Compound Y-039, N-(6-(5-Cyanopyrazin-2-ylamino)-4-(piperidin-4-ylmethoxy)pyridin-3-yl)-2-(dimethylamino)acetamide]"
7,≤ 100 nM,"CN1CCC(Nc2cc(Nc3cnc(C#N)cn3)ncc2[N+](=O)[O-])CC1 [Compound Y-040, 5-(4-(1-Methylpiperidin-4-ylamino)-5-nitropyridin-2-ylamino)pyrazine-2-carbonitrile]"
8,≤ 100 nM,"N#Cc1cnc(Nc2cc(NCC3CCCNC3)c(N)cn2)cn1 (stereo not shown) [Compound Y-041, 5-(5-Amino-4-(piperidin-3-ylmethylamino)pyridin-2-ylamino)pyrazine-2-carbonitrile]"
9,≤ 100 nM,"N#Cc1cnc(Nc2cc(NCCCN)c(N)cn2)cn1 [Compound Y-042, 5-(5-Amino-4-(3-aminopropylamino)pyridin-2-ylamino)pyrazine-2-carbonitrile]"
10,100 to 1000 nM,"CN(C)CC(=O)Nc1cnc(Nc2cnc(C#N)cn2)cc1N[C@@H]1CCCNC1 [Compound Y-043, (R)—N-(6-(5-Cyanopyrazin-2-ylamino)-4-(piperidin-3-ylamino)pyridin-3-yl)-2-(dimethylamino)acetamide]"
11,100 to 1000 nM,"CN(C)CC(=O)Nc1cnc(Nc2cnc(C#N)cn2)cc1NCC1CCCNC1 (stereo not shown) [Compound Y-044, N-(6-(5-Cyanopyrazin-2-ylamino)-4-(piperidin-3-ylmethylamino)pyridin-3-yl)-2-(dimethylamino)acetamide]"

# The remaining lines, values behind:
row,SMILES,IC50
1,"COC(=O)c1cnc(Nc2cnc(C#N)cn2)cc1N[C@H]1CC2CC[C@H](C1)N2C(=O)OC(C)(C)C (stereo in doubt) [Compound Y-074, (1R,5R)-tert-Butyl 3-(2-(5-cyanopyrazin-2-ylamino)-5-(methoxycarbonyl)pyridin-4-ylamino)-8-azabicyclo[3.2.1]octane-8-carboxylate]",1000 to 10000 nM
2,"N#Cc1cnc(Nc2cc(NCC3CCNCC3)c(N)cn2)cn1 [Compound Y-001, 5-(5-Amino-4-(piperidin-4-ylmethylamino)pyridin-2-ylamino)pyrazine-2-carbonitrile]",≤ 1000 nM and 100 to 1000 nM
3,"N#Cc1cnc(Nc2cc(NCCN)c(N)cn2)cn1 [Compound Y-003, 5-(5-Amino-4-(2-aminoethylamino)pyridin-2-ylamino)pyrazine-2-carbonitrile]",≤ 1000 nM and 660 nM and 100 to 1000 nM
4,"CN(C)CCNc1cc(Nc2cnc(C#N)cn2)ncc1N [Compound Y-004, 5-(5-Amino-4-(2-(dimethylamino)ethylamino)pyridin-2-ylamino)pyrazine-2-carbonitrile]",1000 to 10000 nM
5,"N#Cc1cnc(Nc2cc(NC3CCNCC3)c(N)cn2)cn1 [Compound Y-005, 5-(5-Amino-4-(piperidin-4-ylamino)pyridin-2-ylamino)pyrazine-2-carbonitrile]",≤ 1000 nM and 100 to 1000 nM
6,"CN1C2CCC1CC(Nc1cc(Nc3cnc(C#N)cn3)ncc1N)C2 (stereo not shown) [Compound Y-006, 5-(5-Amino-4-(8-methyl-8-aza-bicyclo[3.2.1]octan-3-ylamino)-pyridin-2-ylamino)pyrazine-2-carbonitrile]",1000 to 10000 nM
7,"CN1CCC(Nc2cc(Nc3cnc(C#N)cn3)ncc2N)CC1 [Compound Y-007, 5-(5-Amino-4-(1-methylpiperidin-4-ylamino)pyridin-2-ylamino)pyrazine-2-carbonitrile]",≤ 100 nM
8,"N#Cc1cnc(Nc2cc(N[C@@H]3CCCNC3)c(N)cn2)cn1 [Compound Y-008, (R)-5-(5-Amino-4-(piperidin-3-ylamino)pyridin-2-ylamino)pyrazine-2-carbonitrile]",≤ 1000 nM and 100 to 1000 nM
9,"N#Cc1cnc(Nc2cc(N[C@H]3CCCNC3)c(N)cn2)cn1 [Compound Y-009, (S)-5-(5-Amino-4-(piperidin-3-ylamino)pyridin-2-ylamino)pyrazine-2-carbonitrile]",1000 to 10000 nM
10,"CN(C)CC(=O)Nc1cnc(Nc2cnc(C#N)cn2)cc1NCC1CCNCC1 [Compound Y-010, N-(6-(5-Cyanopyrazin-2-ylamino)-4-(piperidin-4-ylmethylamino)pyridin-3-yl)-2-(dimethylamino)acetamide]",≤ 1000 nM and 100 to 1000 nM
11,"N#Cc1cnc(Nc2cc(NCC3CCNCC3)c(NC(=O)CCN3CCCCC3)cn2)cn1 [Compound Y-011, N-(6-(5-Cyanopyrazin-2-ylamino)-4-(piperidin-4-ylmethylamino)pyridin-3-yl)-3-(piperidin-1-yl)propanamide]",1000 to 10000 nM
12,"COc1ccc(CCC(=O)Nc2cnc(Nc3cnc(C#N)cn3)cc2NCC2CCNCC2)cc1 [Compound Y-012, N-(6-(5-Cyanopyrazin-2-ylamino)-4-(piperidin-4-ylmethylamino)pyridin-3-yl)-3-(4-methoxyphenyl)propanamide]",1000 to 10000 nM
13,"COc1ccc(CC(=O)Nc2cnc(Nc3cnc(C#N)cn3)cc2NCC2CCNCC2)cc1 [Compound Y-013, N-(6-(5-Cyanopyrazin-2-ylamino)-4-(piperidin-4-ylmethylamino)pyridin-3-yl)-2-(4-methoxyphenyl)acetamide]",1000 to 10000 nM
14,"CN(C)CC(=O)Nc1cnc(Nc2cnc(C#N)cn2)cc1NC1CC2CCC(C1)N2C (stereo not shown) [Compound Y-015, N-(6-(5-Cyanopyrazin-2-ylamino)-4-(8-methyl-8-aza-bicyclo[3.2.1]octan-3-ylamino)pyridin-3-yl)-2-(dimethylamino)acetamide]",1000 to 10000 nM
15,"CN(C)CC(=O)Nc1cnc(Nc2cnc(C#N)cn2)cc1NC1CCNCC1 [Compound Y-016, N-(6-(5-Cyanopyrazin-2-ylamino)-4-(piperidin-4-ylamino)pyridin-3-yl)-2-(dimethylamino)acetamide]",≤ 1000 nM and 100 to 1000 nM
16,"COC(=O)c1cnc(Nc2cnc(C#N)cn2)cc1N(C)CC1CCNCC1 [Compound Y-021, Methyl 6-(5-cyanopyrazin-2-ylamino)-4-(methyl(piperidin-4-ylmethyl)amino)nicotinate]",≤ 100 nM
17,"COC(=O)c1cnc(Nc2cnc(C#N)cn2)cc1NC(C)C1CCNCC1 (stereo not shown) [Compound Y-022, Methyl 6-(5-cyanopyrazin-2-ylamino)-4-(1-(piperidin-4-yl)ethylamino)nicotinate]",≤ 100 nM
18,"COC(=O)c1cnc(Nc2cnc(C#N)cn2)cc1NC1CC(C)(C)N(C)C(C)(C)C1 [Compound Y-024, Methyl 6-(5-cyanopyrazin-2-ylamino)-4-(1,2,2,6,6-pentamethylpiperidin-4-ylamino)nicotinate]",≤ 1000 nM and 100 to 1000 nM
19,"COC(=O)c1cnc(Nc2cnc(C#N)cn2)cc1NCC1(C)CCNCC1 [Compound Y-026, Methyl 6-(5-cyanopyrazin-2-ylamino)-4-((4-methylpiperidin-4-yl)methylamino)nicotinate]",≤ 100 nM
20,"COC(=O)c1cnc(Nc2cnc(C#N)cn2)cc1NC1C[C@H]2CC[C@@H](C1)N2Cc1ccccc1 (stereo partly drawn) [Compound Y-029, Methyl 4-((1R,3s,5S)-8-benzyl-8-azabicyclo[3.2.1]octan-3-ylamino)-6-(5-cyanopyrazin-2-ylamino)nicotinate]",≤ 100 nM
21,"COC(=O)c1cnc(Nc2cnc(C#N)cn2)cc1N[C@H]1C[C@H]2CC[C@@H](C1)N2Cc1ccccc1 [Compound Y-030, Methyl 4-((1R,3r,5S)-8-benzyl-8-azabicyclo[3.2.1]octan-3-ylamino)-6-(5-cyanopyrazin-2-ylamino)nicotinate]",1000 to 10000 nM
22,"CCNC(=O)c1cnc(Nc2cnc(C#N)cn2)cc1NC1CC2CCC(C1)N2C (stereo not shown) [Compound Y-034, 6-(5-Cyanopyrazin-2-ylamino)-N-ethyl-4-(8-methyl-8-azabicyclo[3.2.1]octan-3-ylamino)nicotinamide]",≤ 1000 nM and 100 to 1000 nM
23,"COC(=O)c1cnc(Nc2cnc(OC)cn2)cc1NC1CC2CCC(C1)N2C (stereo not shown) [Compound Y-037, Methyl 6-(5-methoxypyrazin-2-ylamino)-4-(8-methyl-8-azabicyclo[3.2.1]octan-3-ylamino)nicotinate]",≤ 100 nM
